Data on twelve compounds can be found in publication PMC5387716, “Discovery of monocarbonyl curcumin-BTP hybrids as STAT3 inhibitors for drug-sensitive and drug-resistant breast cancer therapy” (Scientific Reports, 2017).

Broadly, the melting point is the temperature of the solid-liquid transition.

The subject of data set [1] is MCF-7 cells. The experiment in a line: Flow cytometry of the cell cycle, MCF-7. Format: cell-based, human. Particulars: MCF-7, 4 μM, 24 h. On the procedure:
(§1) MCF-7 or MCF-7/DOX cells were plated in 6-well culture plates (1.5 × 10^5 cells per well). After incubation overnight, various concentrations of 6b or curcumin were added and cells were incubated for 24 h. Cells were harvested, washed with cold PBS, and incubated with pre-cooled 70% ethanol for a minimum of 4 h at 4 °C to fix them. The cells were then centrifuged, carefully aspirated from the supernatant, and re-suspended in a propidium iodide (final concentration, 40 μg/ml) and RNase A (final concentration, 100 μg/ml) solution at a final cell density of 0.5 × 10^6 cells/ml. The suspension was incubated at 37 °C for 30 min prior to analysis by flow cytometry.
For orientation: Flow cytometry measures light scatter and fluorescence of single cells or particles in a stream.

The test system of data set [2] is MCF-7 cells. Nature of the data set: Annexin V-APC/7-AAD flow cytometry of apoptosis, MCF-7. The format is cell-based, human. Particulars: 4 μM, 24 h. On the procedure: (§2) MCF-7, MCF-7/DOX or MCF-10A cells, at a density of 2.5 × 10^5 cells per well, were cultured in regular growth medium in 6-well plates for 24 h and treated in duplicate with different concentrations of 6b or curcumin for 24 h. The cells were harvested, washed and stained with 5 μL of Annexin V-APC and 5 μL of 7-AAD at room temperature for 15 min. Cells were then analyzed by flow cytometry (488 nm excitation and 600 nm emission filters) using a BD FACSCalibur flow cytometer (Becton & Dickinson Company, Franklin Lakes, NJ).

In the next data set the test system is Bcl-2 gene. The experiment in a line: Quantitative real-time RT-PCR of Bcl-2. The format is cell-based, human. Particulars: MCF-7 and MCF-7/DOX cells, 24 h. On the procedure: (§3) Levels of mRNA expression were analyzed with the RT-PCR assay, with total RNA isolated from MCF-7 or MCF-7/DOX cells using an EASYspin Plus tissue/cell RNA extraction kit (Aidlab Biotechnologies Co. Ltd). RNA was quantified by measuring absorption at 260 nm and 1 μg of RNA was reverse transcribed to cDNA using the Transcriptor First Strand cDNA Synthesis Kit (Roche Diagnostics, Basel, Switzerland). Thermal cycling conditions included 95 °C initial denaturation for 5 min, followed by 40 cycles of denaturation (10 s at 95 °C), annealing (15 s at 60 °C) and extension (15 s at 72 °C with a single fluorescence measurement), a melt curve program (60–95 °C with a 0.11 °C/s heat increase and continuous fluorescence measurement) and a cooling step to 40 °C. The Δ cycle threshold method was used for the calculation of relative differences in mRNA abundance with a LightCycler 480 (Roche Molecular Biochemicals, Mannheim, Germany). The data were normalized to the expression of GAPDH. The results were expressed as fold-changes. The RT-PCR primers that were used in this study are listed in the supporting information.
(In general: In qPCR the cycle at which signal appears reflects the starting amount.)

Data set [3] deals with MCF-7/DOX cells. Nature of the data set: MTT anti-proliferative assay, MCF-7/DOX. Format: cell-based, human. Particulars: for IC50: Homo sapiens, MCF7-DOX, MTT, 48 h, read-out: MCF-7/DOX IC50 ± SD. On the procedure: (§4) All cell lines were purchased from Cell Bank of Shanghai Institute of Biochemistry and Cell Biology, Chinese Academy of Sciences (Shanghai, China). Human breast carcinoma cells (MCF-7 and MCF-7/DOX), breast epithelial cells (MCF-10A) and normal human liver cells (LO2) were maintained in RPMI-1640 medium. All cells were supplemented with 12% fetal bovine serum containing 50 μg/ml penicillin and 50 μg/ml streptomycin. Cells were grown to 80% confluency in a tissue culture flask at 37 °C in a humidified atmosphere containing 5% CO2, and then were trypsinized with 1 × Trypsin-Versene and split. The MCF-7/DOX cell line we used was established from its parental cell line MCF-7 cell by gradually increasing the concentration of DOX to which the cells were exposed in a stepwise manner over a period of 8 months. […] The cells were incubated in drug-free medium for at least 1 week before use.
(§5) Cells (MCF-7, MCF-7/DOX, MCF-10A, LO2) were seeded in 96-well plates at a density of 3,000–6,000 cells per well. The cells were incubated overnight (16 h) in a humidified 5% CO2 incubator at 37 °C. After media removal, different concentrations of test compounds were added in triplicate to the plates in 200 μL of fresh media and were incubated with the cells at 37 °C for 48 h. […] Cell viability was evaluated using 3-(4, 5-dimethylthiazolyl)-2,5-diphenyltetrazoliumbromide (MTT). The absorbance was read by an ELISA reader (SpectraMax Plus384, Molecular Devices, Sunnyvale, CA) at a test wavelength of 570 nm and a reference wavelength of 630 nm. Cell viability was calculated using the following formula: […]
Background: Formazan colour is commonly taken as a measure of viable cells.

Data set [4] deals with MCF-7/DOX cells. The experiment in a line: Flow cytometry of the cell cycle, MCF-7/DOX. Particulars: 4 μM, 24 h. Format: cell-based, human. On the procedure: as §1
Data set [5] has as its system MCF-7/DOX cells. Nature of the data set: Annexin V-APC/7-AAD flow cytometry of apoptosis, MCF-7/DOX. Particulars: 4 μM, 24 h. Format: cell-based, human. On the procedure: as §2
Data set [6] concerns MCF-7 cells. Nature of the data set: MTT anti-proliferative assay, MCF-7. The format is cell-based, human. Conditions: Homo sapiens, MCF7, 48 h, read-out: MCF-7 IC50 ± SD. On the procedure:
as §4, §5

The test system of another data set is Cyclin D1 gene. Nature of the data set: Quantitative real-time RT-PCR of Cyclin D1. The format is cell-based, human. Conditions: MCF-7 and MCF-7/DOX cells, 24 h. On the procedure:
as §3

Data set [7] concerns MCF-7 cells. Nature of the data set: ROS detection by DCFH-DA flow cytometry, MCF-7. The format is cell-based, human. Particulars: MCF-7, 4 μM, 24 h. On the procedure: (§6) MCF-7 or MCF-7/DOX cells were seeded at a density of 3 × 10^5 cells per well of a 6-well plate and treated with various concentrations of 6b (0, 1, 2, 4 μM) or 4 μM curcumin for 24 h. DCFH-DA was dissolved in serum-free medium and diluted to a final concentration of 10 μM. After treatment with 6b, the growth media was replaced with serum-free medium containing the probe. After incubation for 20 min at 37 °C, cells were washed with serum-free medium twice, digested by trypsin and resuspended in pre-warmed PBS buffer. The samples were then subjected to a flow cytometry assay using a BD FACSCalibur flow cytometer (Becton & Dickinson Company, Franklin Lakes, NJ).

The test system of data set [8] is MCF-7/DOX cells. The experiment in a line: ROS detection by DCFH-DA flow cytometry, MCF-7/DOX. Particulars: 4 μM, 24 h. The format is cell-based, human. On the procedure:
as §6

The test system of the next data set is Bax gene. The experiment in a line: Quantitative real-time RT-PCR of Bax. Particulars: MCF-7 and MCF-7/DOX cells, 24 h. The format is cell-based, human. On the procedure:
as §3

The next data set relates to MCF-10A cells. Nature of the data set: MTT anti-proliferative assay, MCF-10A. Format: cell-based, human. Conditions: Homo sapiens, MCF-10A, 48 h, normal breast epithelial cells, Table 2 prints no unit, μM. On the procedure:
as §4, §5

Another data set deals with LO2 cells. Nature of the data set: MTT anti-proliferative assay, LO2. Particulars: Homo sapiens, L02, 48 h, normal human liver cells, Table 2 prints no unit, μM. The format is cell-based. On the procedure: as §4, §5

For the compound `COc1cc(/C=C/C(=O)CC(=O)/C=C/c2ccc(O)c(OC)c2)ccc1O` [curcumin], the “effect on the cell cycle” value in the data set on MCF-7 cells [1] and in the data set with MCF-7/DOX cells [4] was “little effect” throughout. For the same compound, the apoptosis rate entry in the data set with MCF-7 cells [2] and with MCF-7/DOX cells [5] was “small effect” each time. Besides, the “Bcl-2 gene level (in words)” value with Bcl-2 gene is “little effect”. Also, the IC50 with MCF-7/DOX cells [3] came to 32700 ± 4000 nM; in the data set on MCF-7 cells [6] it was 37700 ± 8200 nM. The “Cyclin D1 gene level (in words)” value in the data set with Cyclin D1 gene was “little effect”. In addition, the ROS generation result in the data set with MCF-7 cells [7] and in the data set with MCF-7/DOX cells [8] was “little effect” throughout. Also, the “Bax gene level (in words)” value in the data set on Bax gene was “little effect”.

On to `O=C(/C=C/c1ccccc1O)N1CCN(C(=O)C2=Cc3ccc(Br)cc3S2(=O)=O)CC1` [Compound 6p, (E)-1-(4-(6-bromo-1,1-dioxidobenzo[b]thiophene-2-carbonyl)piperazin-1-yl)-3-(2-hydroxy)prop-2-en-1-one], for which the melting point is over 250 °C. In addition, the IC50 in the data set with MCF-7/DOX cells [3] turned out to be 3780 ± 140 nM. Besides, the IC50 in the data set on MCF-7 cells [6] turned out to be 4000 ± 910 nM.

Compound `O=C(/C=C/c1ccccn1)N1CCN(C(=O)C2=Cc3cc(Br)ccc3S2(=O)=O)CC1` [Compound 6f, (E)-1-(4-(5-bromo-1,1-dioxidobenzo[b]thiophene-2-carbonyl)piperazin-1-yl)-3-(pyridin-2-yl)prop-2-en-1-one] displayed a melting point of 241 to 242 °C. Further, the IC50 with MCF-7/DOX cells [3] is 1890 ± 270 nM. Besides, the IC50 in the data set with MCF-7 cells [6] was found to be 1080 ± 60 nM.

Take `COc1cccc2c1C(=O)c1c(O)c3c(c(O)c1C2=O)C[C@@](O)(C(=O)CO)C[C@@H]3O[C@H]1C[C@H](N)[C@H](O)[C@H](C)O1` [DOX, doxorubicin, reference compound]: the IC50 with MCF-10A cells was determined as 0.98 ± 0.17 µM; in the data set with MCF-7/DOX cells [3] it was 64700 ± 3800 nM; in the data set on MCF-7 cells [6], 980 ± 80 nM; with LO2 cells, 0.82 ± 0.12 µM. Also, the “resistance to DOX compared with parental DOX-sensitive cells” value in the data set on MCF-7/DOX cells [3] (MCF-7/DOX vs MCF-7) turned out to be 66.02 fold.

The compound `COc1cc(/C=C/C(=O)N2CCN(C(=O)C3=Cc4ccc(Br)cc4S3(=O)=O)CC2)cc(OC)c1O` [Compound 6o, (E)-1-(4-(6-bromo-1,1-dioxidobenzo[b]thiophene-2-carbonyl)piperazin-1-yl)-3-(4-hydroxy-3,5-dimethoxyphenyl)prop-2-en-1-one] gave a melting point of 112 to 114 °C. Besides, the IC50 with MCF-7/DOX cells [3] turned out to be 9490 ± 2800 nM. For the same compound, in the data set with MCF-7 cells [6], the IC50 turned out to be 2900 ± 360 nM.

Compound `O=C(/C=C/c1ccc(C(F)(F)F)cc1)N1CCN(C(=O)C2=Cc3cc(Br)ccc3S2(=O)=O)CC1` [Compound 6i, (E)-1-(4-(5-bromo-1,1-dioxidobenzo[b]thiophene-2-carbonyl)piperazin-1-yl)-3-(4-(trifluoromethyl)phenyl)prop-2-en-1-one] gave a melting point of 245 to 247 °C. The IC50 in the data set on MCF-7/DOX cells [3] was 870 ± 120 nM. Also, the IC50 in the data set with MCF-7 cells [6] amounted to 670 ± 140 nM.

Consider `COc1cc(/C=C/C(=O)N2CCN(C(=O)C3=Cc4cc(Br)ccc4S3(=O)=O)CC2)cc(OC)c1OC` [Compound 6c, (E)-1-(4-(5-bromo-1,1-dioxidobenzo[b]thiophene-2-carbonyl)piperazin-1-yl)-3-(3,4,5-trimethoxyphenyl)prop-2-en-1-one], for which the melting point was 94 to 96 °C. For the same compound, the IC50 in the data set on MCF-7/DOX cells [3] was found to be 860 ± 130 nM. For the same compound, the IC50 in the data set with MCF-7 cells [6] came out at 1230 ± 80 nM.

Take `O=C(/C=C/c1ccc(Br)cc1)N1CCN(C(=O)C2=Cc3cc(Br)ccc3S2(=O)=O)CC1` [Compound 6g, (E)-1-(4-(5-bromo-1,1-dioxidobenzo[b]thiophene-2-carbonyl)piperazin-1-yl)-3-(4-bromophenyl)prop-2-en-1-one]: the melting point was over 250 °C. For the same compound, the IC50 in the data set with MCF-7/DOX cells [3] worked out at 1180 ± 70 nM. Besides, the IC50 with MCF-7 cells [6] is 2080 ± 60 nM.

The compound `O=C(/C=C/c1ccc(Cl)cc1)N1CCN(C(=O)C2=Cc3ccc(Br)cc3S2(=O)=O)CC1` [Compound 6s, (E)-1-(4-(6-bromo-1,1-dioxidobenzo[b]thiophene-2-carbonyl)piperazin-1-yl)-3-(4-chlorophenyl)prop-2-en-1-one] yielded a melting point of 225 to 227 °C. For the same compound, in the data set on MCF-7/DOX cells [3], the IC50 came to 2230 ± 160 nM. Also, the IC50 in the data set with MCF-7 cells [6] worked out at 1600 ± 90 nM.

Regarding `O=C(/C=C/c1ccc(F)cc1)N1CCN(C(=O)C2=Cc3cc(Br)ccc3S2(=O)=O)CC1` [Compound 6k, (E)-1-(4-(5-bromo-1,1-dioxidobenzo[b]thiophene-2-carbonyl)piperazin-1-yl)-3-(4-fluorophenyl)prop-2-en-1-one], the melting point is over 250 °C. For the same compound, the IC50 in the data set on MCF-7/DOX cells [3] worked out at 2440 ± 570 nM. In the data set with MCF-7 cells [6], the IC50 was 1500 ± 180 nM.

Turning to `COc1cc(/C=C/C(=O)N2CCN(C(=O)C3=Cc4ccc(Br)cc4S3(=O)=O)CC2)cc(OC)c1OC` [Compound 6n, (E)-1-(4-(6-bromo-1,1-dioxidobenzo[b]thiophene-2-carbonyl)piperazin-1-yl)-3-(3,4,5-trimethoxyphenyl)prop-2-en-1-one], the melting point lay within 81 to 85 °C. Moreover, the IC50 in the data set with MCF-7/DOX cells [3] was found to be 2880 ± 570 nM. In the data set with MCF-7 cells [6], the IC50 was 2620 ± 130 nM.

`COc1ccc(/C=C/C(=O)N2CCN(C(=O)C3=Cc4ccc(Br)cc4S3(=O)=O)CC2)cc1` [Compound 6m, (E)-1-(4-(6-bromo-1,1-dioxidobenzo[b]thiophene-2-carbonyl)piperazin-1-yl)-3-(4-methoxyphenyl)prop-2-en-1-one] came in with a melting point of 220 to 222 °C. The IC50 in the data set with MCF-7/DOX cells [3] stood at 380 ± 10 nM. For the same compound, in the data set on MCF-7 cells [6], the IC50 stood at 990 ± 70 nM.
